Assays:
[1] = target: T1, HDAC1 (Homo sapiens, UniProt Q13547); experiment: HDAC enzymes inhibition assay (Reaction Biology), HDAC1; assay type: biochemical; settings: 10-dose, 3-fold dilution from 10 μM, single experiment
T1 construct: Reaction Biology Corporation (ran the assay as a service)

[2] = target: T2, HDAC3 (Homo sapiens, UniProt O15379); experiment: HDAC enzymes inhibition assay (Reaction Biology), HDAC3; assay type: biochemical; settings: 10-dose, 3-fold dilution from 10 μM, single experiment
T2 construct: Reaction Biology Corporation (ran the assay as a service)
T2 sequence (O15379 whole entry): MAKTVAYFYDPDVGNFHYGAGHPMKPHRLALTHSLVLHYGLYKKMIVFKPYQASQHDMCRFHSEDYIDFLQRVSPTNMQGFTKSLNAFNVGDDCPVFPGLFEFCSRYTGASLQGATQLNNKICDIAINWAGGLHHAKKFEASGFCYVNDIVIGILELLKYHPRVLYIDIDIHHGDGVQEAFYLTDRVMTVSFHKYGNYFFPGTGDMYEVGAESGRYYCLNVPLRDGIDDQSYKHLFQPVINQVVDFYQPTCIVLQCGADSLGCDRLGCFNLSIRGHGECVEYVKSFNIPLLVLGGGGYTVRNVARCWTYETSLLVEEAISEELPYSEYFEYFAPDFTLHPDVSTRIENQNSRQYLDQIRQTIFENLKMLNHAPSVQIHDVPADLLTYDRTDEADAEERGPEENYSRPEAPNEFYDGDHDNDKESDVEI
T2 sequence (Q9Y618 395-489 partner limits assumed): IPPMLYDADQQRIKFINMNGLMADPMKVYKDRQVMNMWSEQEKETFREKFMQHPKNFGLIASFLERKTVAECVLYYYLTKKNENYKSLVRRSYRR

[3] = system: human lung normal fibroblasts (IMR-90); experiment: MTT cytotoxicity to normal cells, IMR-90; assay type: cell-based; settings: 48 hours, read-out: IC50, proliferation of IMR-90
Experimental: FIGS. 3A and 3B show the effects of Compound 75 on cytotoxicity to normal cell lines. Cells were treated with DMSO or different concentrations of Compound 75 for 48 hours and cell viability was assessed by MTT assay. […] Data are expressed as mean t S.D. N values greater than 3. * P<0.05; ** P<0.01; *** P<0.001, compared with the control group.
The effects on cell viability of the HSP90/HDAC6 dual inhibitors as described in Synthesis Examples (such as Compounds 63, 64, and 66 to 76) were evaluated. Cells were seeded in 96-well plates (5000 cells/well). The next day, the serially diluted drugs were added into the wells and incubated at 37° C. for 48 h. Cell viability was measured by the MTT assay and is expressed as percentages of surviving drug-treated cells relative to untreated control cells. The IC50 was calculated by non-linear regression analysis.
The cytotoxicity to normal cells of Compound 75 was evaluated.

[4] = system: PD-L1 expression in HCT116, LS174T, Mia paca-2, BXPC3, A549 and CT26 cells; experiment: IFN-γ-induced cell membrane PD-L1 in different cancer cell lines by flow cytometry; assay type: cell-based, human; mouse; settings: Mia paca-2, BXPC3, A549, CT26, co-treated 48 hours
Experimental: The cells were tested in 6-well plates with 32×10^4 cells/well and co-treated with Compound 75 for 48 hours and analyzed by flow cytometry. Bar, SD. […] The effects of the HSP90/HDAC6 dual inhibitors as described in Synthesis Examples (such as Compounds 63, 64, and 66 to 76) on PD-L1 expression were evaluated. Cells were seeded in 6-well plates (3.2×10^5 cells/well) and treated on the next day with […] and compounds or DMSO (vehicle) at indicated concentrations for 48 h. The treated cells were suspended (3×10^5 cells/tube) and stained with PD-L1 antibody (Invitrogen, Waltham, USA) and FITC-conjugated secondary antibodies on ice for 1 h. The fluorescence signal of the cells was analyzed by FASCalibur flow cytometer and CellQuest software (BD Biosciences, San Jose, CA, USA). Using flow cytometry, whether Compound 75 could downregulate […]-induced PD-L1 performance in different cancer cell lines was evaluated, namely human colorectal cancer cell lines (HCT116 and LS174T), human pancreatic cancer cell lines (Mia paca-2 and BXPC3), human lung cancer cell line (A549) and mouse colorectal cancer cell line (CT26).

[5] = Toxicity, body weight and blood counts in BALB/c mice with CT26 tumors; assay type: in vivo
[6] = system: T cells in blood (CD8+, CD4+, Treg); experiment: Peripheral blood immune cells by flow cytometry in CT26 tumor mice; assay type: in vivo, mouse; settings: day 25, flow cytometry, 10, 25, 50 mg/kg
Experimental: FIGS. 10A to 10C show immune cell regulation of peripheral blood by Compound 75. BALB/c mice with CT26 tumors were treated with 10, 25 and 50 mg/kg of Compound 75 every two days, and blood was collected from the heart and analyzed by flow cytometry on day 25 for cytotoxicity T cells (CD3+CD8+) (as shown in FIG. 10A), helper T cells (CD3^+CD4^+) (as shown in FIG. 10B) and regulatory T cells (CD3^+CD4^+FOXP3^+) (as shown in FIG. 10C). Data are expressed as mean±S.D. N values greater than 3. * P<0.05; ** P<0.01; *** P<0.001, compared with the control group.
The reasons for the decrease of Treg in blood were further investigated.

[7] = system: CT26 tumor; experiment: CT26 tumor model, Compound 75 combined with CPT-11; assay type: in vivo, mouse; settings: Compound 75 50 mg/kg plus CPT-11 20 mg/kg
Experimental: CT26 was injected subcutaneously into immunocompetent mice (BALB/c). The mice were treated with CPT-11 or combined Compound 75 with CPT-11 when the tumor grew to 50-100 mm^3. CPT-11 was given at 20 mg/kg for 7 consecutive days; compound 75 was given at 50 mg/kg every 2 days (8 doses in total, with suspension after day 14). […] Bar, S.E.M.
Whether Compound 75 could enhance the tumor suppressive effect of chemotherapeutic agents was evaluated. Control (vehicle), CPT-11 (20 mg/kg), or Compound 75 (50 mg/kg) was administered in combination with CPT-11 to mice and sacrificed them on day 25 as shown in FIG. 13A.

[8] = system: CT26 tumor recurrence; experiment: CT26 tumor recurrence after tumor removal and re-inoculation; assay type: in vivo, mouse; settings: 50 mg/kg every two days, day 37
Experimental: Stage 1: CT26 was injected subcutaneously into the left dorsum of immunocompetent mice (BALB/c), and Compound 75 treatment was started after 3 days, administered intravenously at a dose of 50 mg/kg every two days (7 doses in total). After tumor removal, tumor cells were isolated for in vitro culture (untreated tumor control-tumor; Compound 75-treated tumor: Compound 75-tumor). Stage 2: On day 17, the isolated tumor cells were injected subcutaneously into the right side of the mouse back and the mice were sacrificed on day 37 (as shown in FIG. 14A). […] Data are mean t S.E.M. N values greater than 4.
Whether Compound 75 induces the performance of memory T cells to prevent tumor recurrence was further investigated. Mouse colorectal cancer cells (CT26) were inoculated into the back of immunocompetent mice (BALB/c) and gave control or Compound 75 (50 mg/kg) every two days after 3 days, and removed the tumors on day 14. The cancer cells were isolated and cultured in vitro. The isolated cancer cells were re-injected into the back of the mice on day 17 and the mice were sacrificed on day 37 (FIG. 14A). […] However, in the control group (control/control-tumor), 4 out of 5 cancer recurrences occurred and the tumors were larger (FIGS. 14B, 14C and 14D).

[9] = CT26 in Balb/c, 10, 25, 50 mg/kg i.v. every two days

T1 sequence (Q13547 whole entry): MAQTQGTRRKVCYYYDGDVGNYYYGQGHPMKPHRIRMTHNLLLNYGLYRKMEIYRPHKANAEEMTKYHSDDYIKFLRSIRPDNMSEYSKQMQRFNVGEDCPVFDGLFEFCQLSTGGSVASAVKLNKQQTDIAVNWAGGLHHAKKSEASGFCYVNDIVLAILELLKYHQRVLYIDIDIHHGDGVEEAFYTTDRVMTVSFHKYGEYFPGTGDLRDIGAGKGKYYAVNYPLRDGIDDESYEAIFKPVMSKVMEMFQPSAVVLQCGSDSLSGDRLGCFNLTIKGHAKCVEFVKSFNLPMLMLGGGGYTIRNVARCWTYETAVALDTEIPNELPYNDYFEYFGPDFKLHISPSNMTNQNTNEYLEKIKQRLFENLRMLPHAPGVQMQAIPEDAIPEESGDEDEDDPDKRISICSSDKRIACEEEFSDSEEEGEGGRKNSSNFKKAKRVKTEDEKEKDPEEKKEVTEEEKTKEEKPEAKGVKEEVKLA

Structure (SMILES): COc1ccc(N(Cc2ccc(C(=O)NO)cc2)C(=O)c2cc(C(C)C)c(O)cc2O)cc1 [Compound 75, 2,4-Dihydroxy-N-(4-hydroxycarbamoyl-benzyl)-5-isopropyl-N-(4-methoxy-phenyl)-benzamide]
- IC50 [1]: 616 nM
- IC50 [2]: 1370 nM
- IC50 [3]: > 20000 nM
- IFN-γ-induced cell membrane protein PD-L1 expression [4]: inhibits all IFN-7-induced cell membrane protein PD-L1 expression
- body weight [5, 9]: no significant change in body weight
- toxicity in mice [5, 9]: no significant toxicity
- white blood cell, lymphocyte, red blood cell, hemoglobin and platelet counts, lymphocyte percentage ([5]; blood from heart on day 25, 10, 25, 50 mg/kg every two days, versus control group): not significantly different
- organ toxicity or hematotoxicity ([5]; immunocompetent mice): does not cause significant organ toxicity or hematotoxicity
- immunosuppressive Treg cell level in blood [6]: could be reduced in a concentration dependent manner
- percentage of CD4+ helper T cells in blood [6]: did not affect
- percentage of CD8+ cytotoxicity T cells in blood [6]: did not affect
- body weight, combined therapy versus CPT-11 alone [7]: no significant difference
- tumor suppressive effect in combination with CPT-11 ([7]; day 25): significantly enhanced the effect of CPT-11 therapy
- cancer recurrence, re-inoculated with Compound 75-treated cancer cells ([8]; group comp.75/comp.75-tumor): only one mouse suffered cancer recurrence
- cancer recurrence, re-inoculated with control cancer cells ([8]; group comp.75/control-tumor): only one mouse suffered cancer recurrence

Source: patent publication US20240398823A1, “DUAL INHIBITOR OF HISTONE DEACETYLASE 6 AND HEAT SHOCK PROTEIN 90” (TAIPEI MEDICAL UNIVERSITY, priority 2021, published 2024)
